Measurements from patent US20030175366A1, “Plant Extracts and Methods of Treating Skin Therewith” (priority 2000, published 2003).

Tests used:
[1] = tested on: glucose-6-phosphate dehydrogenase in human fibroblasts; assay: G6PDH activity in human fibroblasts (in vitro determination of the enzymatic activity); assay type: cell-based; conditions: control = 100; for G6PDH activity after 3 days: 3 days incubation
Description: The G6PDH activity was determined in accordance with the microprocess described by Garidelli de Quincenet in Annual Dermatol. Venereol. 107(12), 1163-1170 (1980). The G6PDH activity was determined in accordance with the process described by Natsuko Okada and Yukio Kitano in: Arch. Dermatol. Res., 271(3): 341-346, 1981 by in vitro determination of the enzymatic activity of the glucose-6-phosphate dehydrogenase in human fibroblasts.
(§1) The DNA content was determined in accordance with the method described by Desaulniers in Toxic. In vitro 12(4), 409-422 (1998). The incubation time of the fibroblasts was in each case 3 days and 6 days. In each case, the average of 4 experiments with triple determination is given.

human fibroblasts = assay: DNA content of the fibroblasts; assay type: cell-based; conditions: control = 100; for DNA content after 3 days: 3 days incubation
Description: as §1

[2] = conc. 0.00003 % by wt., 6 days incubation

Q: For `COc1cc2c(cc1O)C[C@H]1c3c(cc(O)c(OC)c3-2)CCN1C` [Boldin index B3916 (Sigma), Boldin], which “G6PDH activity after 3 days” value ([1]; conc. 0.005 % by wt.) is on record?
A: Its value is 200 rel-%.

Q: And the “DNA content after 3 days” value (human fibroblasts; conc. 0.005 % by wt.)?
A: Its value is 97 rel-%.

Q: How did the “G6PDH activity after 3 days” value ([1]; conc. 0.00003 % by wt.) turn out when `CC1=C(/C=C/C(C)=C/C=C/C(C)=C/C(=O)O)C(C)(C)CCC1` [Retinoic acid] was run?
A: The value was 134 rel-%.

Q: And the “G6PDH activity after 6 days” value [1, 2]?
A: The value was 130 rel-%.

Q: What about the “DNA content after 3 days” value (human fibroblasts; conc. 0.00003 % by wt.) of the same compound?
A: The value was 76 rel-%.

Q: And the “DNA content after 6 days” value (human fibroblasts; [2])?
A: The value was 98 rel-%.

Q: Which results are given for `CC1=C(/C=C/C(C)=C/C=C/C(C)=C/CO)C(C)(C)CCC1` [Retinol]?
A: G6PDH activity after 3 days ([1]; conc. 0.005 % by wt.): 400 rel-%; DNA content after 3 days (human fibroblasts; conc. 0.005 % by wt.): 95 rel-%
